Results as given in publication PMC12003167 (Nature, 2025).

T1: chanoclavine synthase (EasC) from Claviceps fusiformis (EasCCf) (Claviceps fusiformis, UniProt A8C7R6)
T1 sequence (A8C7R6 1-479): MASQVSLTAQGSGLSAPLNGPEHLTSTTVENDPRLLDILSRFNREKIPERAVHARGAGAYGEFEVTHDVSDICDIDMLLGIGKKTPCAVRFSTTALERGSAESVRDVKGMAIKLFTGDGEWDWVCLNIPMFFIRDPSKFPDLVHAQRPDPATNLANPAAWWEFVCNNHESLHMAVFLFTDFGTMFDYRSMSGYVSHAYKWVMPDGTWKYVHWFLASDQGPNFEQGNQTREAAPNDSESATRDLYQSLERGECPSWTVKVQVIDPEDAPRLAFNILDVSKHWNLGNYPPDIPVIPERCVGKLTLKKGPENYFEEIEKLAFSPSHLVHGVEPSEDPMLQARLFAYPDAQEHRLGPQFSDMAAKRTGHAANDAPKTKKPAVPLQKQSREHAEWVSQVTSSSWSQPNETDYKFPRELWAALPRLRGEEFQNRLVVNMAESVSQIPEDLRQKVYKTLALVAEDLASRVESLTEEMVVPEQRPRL

B1: chanoclavine synthase (EasC) from Claviceps fusiformis (enzyme)
chain: T1 sequence (A8C7R6 1-479)

Assays:
[1] = biological target: T1, chanoclavine synthase (EasC) from Claviceps fusiformis (EasCCf); test: PCC conversion assay by LC–MS; assay type: biochemical
cryo-EM structure = biological target: the molecule itself; test: cryo-EM structure

Molecule | IC50 [1] [µM] | stoichiometry N (cryo-EM structure)
NO [NH2OH, hydroxylamine] | 720 | –
B1 | – | 2
